Assay results: the supplement of paper PMC10307832

Experiments:
Assay in all cases: relative viability (nuclei count vs DMSO), 5 days (fraction); higher = more cells survive
VE-821 + Foretinib = compound: CS(=O)(=O)c1ccc(-c2cnc(N)c(C(=O)Nc3ccccc3)n2)cc1 [VE-821] + COc1cc2c(Oc3ccc(NC(=O)C4(C(=O)Nc5ccc(F)cc5)CC4)cc3F)ccnc2cc1OCCCN1CCOCC1 [Foretinib] (partner 0.25 µM)
Summary of the method: (§1)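 After 5 days of treatment, lung cancer cells in 1536-well plates were fixed and stained in a single step (final 0.05% Triton X-100, 1% formaldehyde, 1 ug/ml Hoechst) and their nuclei counted on 4× images. Treatment had been applied by pin tool the day after seeding as one drug alone or as a fixed anchor-drug dose with five library-drug doses (not always all listed) in √10 steps. Relative viability is the nuclei count of treated wells divided by that of vehicle wells, and values are medians of duplicate plates.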

Vismodegib + Luminespib = compound: CS(=O)(=O)c1ccc(C(=O)Nc2ccc(Cl)c(-c3ccccn3)c2)c(Cl)c1 [Vismodegib] + CCNC(=O)c1noc(-c2cc(C(C)C)c(O)cc2O)c1-c1ccc(CN2CCOCC2)cc1 [Luminespib] (partner 0.01 µM)
Summary of the method: as §1

Vismodegib + Foretinib = compound: CS(=O)(=O)c1ccc(C(=O)Nc2ccc(Cl)c(-c3ccccn3)c2)c(Cl)c1 [Vismodegib] + COc1cc2c(Oc3ccc(NC(=O)C4(C(=O)Nc5ccc(F)cc5)CC4)cc3F)ccnc2cc1OCCCN1CCOCC1 [Foretinib] (partner 0.25 µM)
Summary of the method: as §1

Ruxolitinib + AZD7762 = compound: N#CC[C@H](C1CCCC1)n1cc(-c2ncnc3[nH]ccc23)cn1 [Ruxolitinib] + NC(=O)Nc1cc(-c2cccc(F)c2)sc1C(=O)N[C@H]1CCCNC1 [AZD7762] (partner 0.2 µM)
Summary of the method: as §1

Row | Cell Line | relative viability (VE-821 + Foretinib; first compound 0.08 µM) | relative viability (VE-821 + Foretinib; first compound 0.253 µM) | relative viability (VE-821 + Foretinib; first compound 0.8 µM) | relative viability (VE-821 + Foretinib; first compound 2.53 µM) | relative viability (VE-821 + Foretinib; first compound 8 µM) | relative viability (Vismodegib + Luminespib; first compound 0.08 µM) | relative viability (Vismodegib + Luminespib; first compound 0.253 µM) | relative viability (Vismodegib + Luminespib; first compound 0.8 µM) | relative viability (Vismodegib + Luminespib; first compound 2.53 µM) | relative viability (Vismodegib + Luminespib; first compound 8 µM) | relative viability (Vismodegib + Foretinib; first compound 0.08 µM) | relative viability (Vismodegib + Foretinib; first compound 0.253 µM) | relative viability (Vismodegib + Foretinib; first compound 0.8 µM) | relative viability (Vismodegib + Foretinib; first compound 2.53 µM) | relative viability (Vismodegib + Foretinib; first compound 8 µM) | relative viability (Ruxolitinib + AZD7762; first compound 0.08 µM) | relative viability (Ruxolitinib + AZD7762; first compound 0.253 µM) | relative viability (Ruxolitinib + AZD7762; first compound 0.8 µM) | relative viability (Ruxolitinib + AZD7762; first compound 2.53 µM) | relative viability (Ruxolitinib + AZD7762; first compound 8 µM)
1 | NCI-H661 | 0.991 | 1.04 | 0.95 | 1.08 | 0.935 | 0.945 | 0.909 | 0.934 | 0.876 | 0.889 | 1.07 | 1.02 | 0.99 | 0.961 | 1.09 | – | – | – | – | –
2 | NCI-H596 | 0.867 | 0.617 | 0.928 | 0.905 | 0.607 | 1.04 | 0.96 | 1.15 | 1.05 | 1.02 | 0.826 | 0.83 | 0.463 | 0.964 | 1 | 1.35 | 1.04 | 1.21 | 1.09 | 1.27
3 | IA-LM | 1.2 | 0.957 | 1.15 | 1.04 | 1.03 | – | – | – | – | – | 1.2 | 1.15 | 1.28 | 1.04 | 1.2 | – | – | – | – | –
4 | LC-2-ad | 1.04 | 1.05 | 1.03 | 1.17 | 1.03 | 1.01 | 0.957 | 0.975 | 0.955 | 1.06 | 0.924 | 0.848 | 0.893 | 0.847 | 1.02 | 0.875 | 0.865 | 0.821 | 0.792 | 0.693
5 | Calu-6 | 0.94 | 0.932 | 0.821 | 0.767 | 0.753 | – | – | – | – | – | 0.761 | 0.837 | 0.863 | 0.852 | 0.9 | – | – | – | – | –
6 | NCI-H2126 | 1.38 | 1.1 | 1.21 | 1.1 | 0.764 | 0.84 | 0.921 | 0.809 | 0.851 | 0.82 | 1.19 | 1.13 | – | 1.09 | 1.15 | 0.954 | 1.12 | 1.09 | 0.995 | 0.967
7 | NCI-H647 | 1.51 | 1.29 | 1.01 | 1.14 | 0.801 | 0.505 | 0.227 | 0.219 | 0.125 | 0.181 | 1.24 | 1.22 | 1.26 | 1.02 | 1.14 | 0.398 | 0.499 | 0.421 | 0.439 | 0.366
8 | NCI-H322M | 1.07 | 0.879 | 0.89 | 0.858 | 0.393 | 0.876 | 0.797 | 0.881 | 0.812 | 0.818 | 1.01 | 0.965 | 1.01 | 0.87 | 0.97 | 0.524 | 0.508 | 0.517 | 0.685 | 0.776
9 | NCI-H358 | 0.687 | 0.598 | 0.591 | 0.896 | 0.624 | 0.325 | 0.258 | 0.418 | 0.33 | 0.204 | 0.677 | 0.629 | 0.797 | 0.68 | 0.782 | 0.5 | 0.653 | 0.504 | 0.404 | 0.445
10 | NCI-H1299 | 1.1 | 1.08 | 1.04 | 1 | 1 | – | – | – | – | – | 1.06 | 1.11 | 1.13 | 1.07 | 1.09 | – | – | – | – | –
11 | SW 1573 | 0.96 | 0.853 | 0.861 | 0.815 | 0.87 | – | 0.216 | 0.174 | 0.215 | 0.207 | 0.994 | 0.908 | 0.907 | 0.895 | 1.01 | – | – | – | – | –
12 | NCI-H2009 | 1.34 | 1.26 | 1.1 | 1.28 | 1.23 | 0.873 | 0.968 | 1.03 | 1.01 | 1.04 | 1.23 | 1.23 | 1.29 | 1.19 | 1.23 | – | – | – | – | –
13 | NCI-H1703 | 0.33 | 0.3 | 0.329 | 0.364 | 0.404 | – | – | – | – | – | 0.383 | 0.344 | 0.379 | 0.336 | 0.316 | 0.127 | 0.126 | 0.143 | – | 0.115
14 | NCI-H1792 | – | – | – | – | – | 0.344 | 0.517 | 0.342 | 0.467 | 0.414 | – | – | – | – | – | 0.557 | 0.636 | 0.63 | 0.475 | 0.391
15 | HCC-78 | 0.577 | 0.524 | 0.539 | 0.628 | 0.569 | – | – | – | – | – | 0.515 | 0.538 | 0.511 | 0.593 | 0.532 | 0.695 | 0.484 | 0.481 | 0.631 | 0.628
16 | NCI-H2023 | 0.998 | 0.785 | 0.511 | 0.383 | 0.343 | 0.634 | 0.789 | 0.891 | 0.68 | 0.794 | 0.974 | 0.804 | 0.881 | 0.834 | 0.999 | – | – | – | – | –
17 | SK-LU-1 | 0.871 | 0.775 | 0.738 | 0.59 | 0.254 | 0.206 | 0.201 | 0.22 | 0.216 | 0.223 | 0.76 | 0.821 | 0.875 | 0.753 | 0.818 | – | – | – | – | –
18 | NCI-H522 | – | – | – | – | – | 1.1 | 1.1 | 0.939 | 1.34 | 1.09 | – | – | – | – | – | 0.948 | 0.716 | 1.01 | 0.794 | 0.803
19 | NCI-H1650 | 1.15 | 1.11 | 0.718 | 1.39 | 0.692 | 0.214 | 0.192 | 0.212 | 0.178 | 0.18 | 1.08 | 0.938 | 1.13 | 1.07 | 1.21 | – | – | – | – | –
20 | HCC-366 | 0.942 | 0.922 | 0.815 | 0.271 | 0.153 | – | – | – | – | – | 0.893 | 0.925 | 0.877 | 0.956 | 0.864 | 0.286 | 0.253 | 0.262 | 0.166 | 0.246
21 | COR-L 105 | 1.06 | 1.15 | 0.937 | 0.731 | 0.759 | 0.657 | 0.785 | 0.92 | 0.973 | 0.773 | 1.23 | 0.829 | 1.17 | 0.82 | 0.994 | – | – | – | – | –
